In patent US20120190707A1, “SELECTIVE INHIBITORS OF AKT AND METHODS OF USING SAME” (priority 2008, published 2012):
“Also recorded” adds a separate entry of the source.

Legend:
[1] = Initial MTD assays; conditions: in vivo, 5 mg/kg; data not shown; read-out: dose at which MTD assays revealed toxicity
[2] = test system: AKT; experiment: pAKT473 and total AKT by western analysis in UACC 903 (PTEN-) cells; type: cell-based, human
Method: (§1) FIG. 6 describes the effect of BI-69A11 on phosphorylation and total levels of AKT in UACC 903 (PTEN−) cells. (A) UACC903 and the modified clone 29-1 (PTEN+) cells were exposed to 10 micro.M BI-69A11 and 50 micro.M LY294002 (a PI3K inhibitor) and the levels of pAKT473 and total AKT determined by western analysis. […] (SF=Serum Free). (B) BI-69A11 inhibits PRAS40 phosphorylation. UACC903 melanoma cells or 29-1 cells (PTEN+) were subjected to treatment with IGF-1 (20 ng/mL) and the level of PRAS40 phosphorylation was assessed. […] The cells were collected, lysed and levels of pPRAS40 and total PRAS40 determined by western analysis. (C) AKT association with HSP90 is inhibited by BI-69A11. Human melanoma cells were treated with BI-69A11 (10.micro.M) or DMSO control for 4 h, followed by protein preparation and immunoprecipitation using antibodies to pan-AKT. MG132 treatment, when used, initiated 1 h prior to treatment and lasted up to the preparation of proteins (total of 5 h). The right panel depicts analysis of total lysates.
The term “cell lines”, as used herein, unless otherwise indicated, refer to UACC 903 cells and 29-1 cells. The cells were cultured in DMEM, supplemented with 10% FBS and maintained at 37° C. in 5% CO2. Cells were plated to 75% confluency and grown overnight at 37° C. Plates were rinsed twice with a serum-free DMEM medium and the appropriate concentration of the compound was added to the plates. Cells were harvested at different timepoints by scraping (for western blotting) or trypsinization (for cell proliferation assay) where appropriate.
Thus, we set to test the possibility that BI-69A11's ability to inhibit AKT activity may stem from inhibition of AKT protein expression (see data below). We thus assessed whether inhibition of AKT Ser473 phosphorylation coincides with its activity, namely the phosphorylation of known AKT substrates. […] Of note, AKT3, the primarily active isoform of AKT in melanoma cells, effectively phosphorylates PRAS40 (Madhunapantula et al., 2007). […]

[3] = test system: PRAS40; experiment: IGF-1 induced PRAS40 phosphorylation by western analysis in 29-1 cells; type: cell-based, human; conditions: IGF-1 (20 ng/mL), 10.micro.M
Method: as §1
We next tested the effect of BI-69A11 in 29-1 cells which are derivative of UAC903 that were reconstituted with chromosome 10 carrying the wt PTEN. Thus, 29-1 cells no longer express a constitutively active form of AKT (Robertson et al., 1998). To activate AKT, 29-1 cells were treated with IGF-1 (FIG. 6B). […]

[4] = test system: p53; experiment: Levels of HSP90 client protein p53; type: cell-based; conditions: data not shown
Text: Among cellular proteins implicated in the regulation of AKT levels is the cellular chaperone HSP90. Inhibition of HSP90 chaperone function, as commonly achieved by the geldanamycin antibiotic, interferes with the conformational maturation and refolding of its associated proteins, thereby promoting their degradation (Munster et al., 2002; Neckers and Neckers, 2003). […] Thus we assessed whether association of AKT with HSP90 could be affected by BI-69A11. Immunoprecipitation of AKT from melanoma cells identified HSP90 in the immunoprecipitated material. Such association was however abolished following treatment with the BI-69A11 inhibitor (FIG. 6C). […] To this end, we also performed the experiment in the presence of the proteasome inhibitor MG132.

[5] = test system: PRAS40; experiment: PRAS40 phosphorylation by western analysis in UACC903 cells; type: cell-based, human; conditions: UACC903, 10.micro.M
Method: as §1
Thus, we set to test the possibility that BI-69A11's ability to inhibit AKT activity may stem from inhibition of AKT protein expression (see data below). We thus assessed whether inhibition of AKT Ser473 phosphorylation coincides with its activity, namely the phosphorylation of known AKT substrates. […]

[6] = test system: AKT; experiment: AKT phosphorylation and expression by western blot in MeWo melanoma cells; type: cell-based
Method: (A) MeWo melanoma cells growing in 60 mm plates were treated with the indicated concentration of the inhibitor for 4 h before proteins were prepared for western blot analysis using the indicated antibodies. Level of beta.actin was monitored as a control for protein loading. (B) Experiment was performed as indicated in panel A, except that cells were harvested after 24 h for analysis of cell death using trypan blue staining. (C) Melanoma (MeWo), prostate cancer (PC3) and breast cancer (MCF7) cells were treated with BI-69A11 at the indicated concentrations; levels of AKT phosphorylation or expression were assessed 4 h later. The level of beta.actin used as a control for protein loading. (D) Experiment was performed as indicated in panel C, except that cells were harvested after 4 h for analysis of cell death using trypan blue staining.
To evaluate the effectiveness of BI-69A11 on melanoma cells we assessed the effect of different concentrations on AKT phosphorylation in MeWO cells.
For western blotting techniques, cells were lysed in RIPA buffer containing 50 mM TrisHCl pH7.4, 150 mM NaCl, 2 mM EDTA, 1% NP-40, 0.1% SDS. The protein concentration was estimated using the Coomassie Protein assay kit (Thermo Scientific, Rockford, Ill., USA). Equal concentrations of cell lysate (30-50 ug) were resolved on a 10% polyacrylamide gel and transferred onto Nitrocellulose membrane (GE Amersham). Membranes were blocked for 1-2 hours in either 3% BSA or 5% nonfat dried milk in Tris-buffered saline containing 0.05% Tween 20. Primary antibody incubations were performed overnight at 4° C. with shaking. The blots were washed followed by incubation with a secondary antibody incubation for 1 hour at room temperature. After washing, the blots were scanned on the Odyssey Licor scanner at the appropriate wavelength and the image was captured using the Odyssey software.

[7] = test system: UACC903 melanoma cells; experiment: Cell death by trypan blue exclusion in UACC903 compared with 29-1 cells; type: cell-based, human
Method: (A) 903 and 29-1 cells were exposed to different concentrations of BI-69A11 or UV light as a positive control and the percentage of cell death determined by trypan blue exclusion assay. (B) PARP cleavage was determined in 903 and 29-1 cells after treatment with BI-69A11 at 2, 4 and 6 hours.
Since AKT activity is important for tumor cell survival, its inhibition is expected to result in cell death. We thus monitored cell death in melanoma cells that were treated with BI-69A11.
For the proliferation assays, cells were treated as described above. However, instead of scraping cells into the serum-free medium, floating cells were collected in a 15 mL centrifuge tube whereas adherent cells trypsinized gently. The total cell population was pooled and counted on a hemocytometer after staining with Trypan Blue. The percentage of dead cells was determined by calculating the number of dead cells/total cells X 100. This experiment was performed two times each in triplicate.

Compound: O=C(/C=C/c1nc2ccccc2[nH]1)c1c(O)nc2ccc(Cl)cc2c1-c1ccccc1 [Compound 2, (E)-3-(3-(1H-benzo[d]imidazol-2-yl)acryloyl)-6-chloro-4-phenylquinolin-2(1H)-one]
- MTD [1]: 5 mg/kg
- levels of pAKT473 ([2]; 10 micro.M, UACC903 and 29-1 cells, FIG. 6A): Reduced levels of pAKT473
- levels of total AKT ([2]; 903 cells, 10 micro.M, increasing time after treatment): reduced levels of total AKT
- levels of pAKT Ser473 / AKT phosphorylation ([2]; UACC 903 cells, listed as BI-69A11): dose-dependent decrease; also recorded: effectively blocked
- phosphorylation of PRAS40 [3]: effectively inhibited
- level of p53 [4]: limited effect
- phosphorylation of PRAS40 [5]: markedly inhibited
- AKT phosphorylation on S473 ([6]; 3 micro.M, 4 h): partial inhibition
- AKT protein levels ([6]; 5 and 10 micro.M): reduced levels of AKT protein
- basal level of AKT phosphorylation ([6]; 5 and 10 micro.M, 4 h): effectively inhibited
- AKT phosphorylation ([6]; low doses (<0.3 micro.M), 4 h): did not affect
- cell death, PTEN mutant melanoma cells compared with 29-1 cells ([7]; FIG. 7A): more pronounced on PTEN mutant melanoma cells
- cell death of melanoma cells ([7]; concentrations as low as 1 micro.M, within 24 hours): effective cell death
